The structures appear in SMILES notation.

For one series, the system named is MG-63 cells. The series is described as follows: Cell cycle analysis (PI, FACS), MG-63. Type of series: cell-based, human. The method, then:
Cells were harvested and fixed with 70% ethanol at regular time intervals. Fixed cells were stained with propidium iodide (PI) for flow cytometry analysis using BD FACScan (BD Biosciences, San Jose, Calif.). Distribution of cell cycle was analyzed by ModFit LT V2.0 software (Verity Software House, Topsham, Me.). […] After 24, 48, and 72 hours of exposure, cells were harvested and stained with PI and fluorescein isothiocyanate (FITC) using Annexin V-FITC apoptosis detection kit (BD Biosciences) according to the manufacturer's protocol. Cells were subjected to flow cytometry analysis within one hour of staining.

A further series can be described thus: Serum chemistry in mice. Format: in vivo. Particulars: day 35.

Description for Serum chemistry in mice: Whole blood samples were obtained by submandibular bleeding and serum samples were harvested with serum separator tubes (BD Biosciences). Blood count and serum chemistry results were obtained by the Hemagen Analyst Benchtop Chemistry System (Hemagen Diagnostics, Inc. Columbia, Md.). Colony-forming cell (CFC) assays were performed as previously described (18).

As to `CC(=O)OC(C)(C)/C=C/C(=O)[C@](C)(O)[C@H]1[C@H](O)C[C@@]2(C)[C@@H]3CC=C4[C@H](C[C@H](O)C(=O)C4(C)C)[C@]3(C)C(=O)C[C@]12C` [CuB, cucurbitacin B], the “increase of G2/M phase” value with MG-63 cells (20 hours of exposure) is reported as “around 3 fold”. In the series on MG-63 cells (20 hours of exposure at ED50 (control 27%)), the G2/M phase was found to be 76%. In the series “Serum chemistry in mice” (HD-CuB 1.0 mg/kg), this molecule yielded a CK of 156.0 ± 33.9 U/l, an albumin of 3.4 ± 0.1 g/dL, a bilirubin of 0.06 ± 0.00 mg/dL and a cholesterol of 172.0 ± 8.5 mg/dL. Further, in the series “Serum chemistry in mice” (HD-CuB 1.0 mg/kg), the creatine was 0.42 ± 0.25 mg/dL, the globulin was found to be 1.6 ± 0.2 g/dL, the total protein came to 5.0 ± 0.1 g/dL and the uric acid was found to be 5.5 ± 0.6 mg/dL. Besides, in “Serum chemistry in mice” (LD-CuB 0.5 mg/kg), the CK is given as 140.5 ± 70.0 U/l, the albumin came to 3.1 ± 0.1 g/dL, the bilirubin was found to be 0.09 ± 0.04 mg/dL and the cholesterol is 147.0 ± 5.7 mg/dL. In “Serum chemistry in mice” (LD-CuB 0.5 mg/kg), this molecule registered a creatine of 0.29 ± 0.05 mg/dL, a globulin of 0.7 ± 0.9 g/dL, a total protein of 3.7 ± 1.0 g/dL and a uric acid of 3.7 ± 0.3 mg/dL.

(Values after US20120238532A1, “TREATMENT OF HUMAN OSTEOSARCOMA” (CEDARS-SINAI MEDICAL CENTER, priority 2009, published 2012).)
